Values joined by “and” are separate entries in the source; they are usually repeats but may differ in a detail not shown here. Equal entries are not always repeated. Starred links: 1 amine or outer side, 2 acyl side, 3 side chain; linkers in the order of their positions; H or OH if unused. Non-standard residues stand in square brackets, D forms with d. Residues, ends and D or L forms follow the SMILES beside them. X3 = O=C([C@@H](N[*:1])C(O)c1ccc(O)cc1)[*:2]; X2 = CCCCCCCCCCCCNCCC(CC(=O)[*:2])N[*:1]; X1 = NC(=O)C(O)[C@H](N[*:1])C(=O)[*:2]; Dab = NCC[C@H](N)C(=O)O Some results are limits rather than exact numbers.

Consider 5 compounds from PMC9792986, “Synthesis and characterization of semisynthetic analogs of the antifungal occidiofungin” (Frontiers in Microbiology, 2022).

Data set [1] addresses T1, F-actin (rabbit skeletal muscle filamentous actin) (Oryctolagus cuniculus, UniProt P68135).
T1 construct: Purified rabbit skeletal muscle filamentous actin (AKF99); purchased Cytoskeleton Inc. (Denver, CO) AKF99; host or cells: rabbit skeletal muscle (tissue-purified)
Also noted: method as in Ravichandran et al., 2019. To be noted: co-sedimentation, published previously, ref Ravichandran et al., 2019, cited from earlier work; for Kd: read-out: Kd value for binding to F-actin.

The subject of data set [2] is F-actin. In words: Pyrene labeled actin depolymerization assay. To be noted: 5 μM compound; duplicate. Type of data set: biochemical. On the procedure: (§1) Actin polymerization and depolymerization assays were performed using the Actin polymerization biochem kit (# BK003; Cytoskeleton, Inc. Denver, CO) following the manufacturer’s instructions with some modifications. Briefly, for the polymerization assay, G-actin stock solution was made at 0.2 mg/ml instead of 0.4 mg/ml. For the depolymerization assay, F-actin stock solution was diluted nine-fold instead of five-fold. Test compounds including phalloidin, DL-dihydrosphingosine analog, and native occidiofungin were tested at a final concentration of 5 μM. The experiments were done in duplicate.

Data set [3] relates to S. cerevisiae, Candida albicans, and Candida glabrata. In words: MIC comparison with native occidiofungin over the yeasts tested. Type of data set: cell-based. To be noted: against the Candida species tested and S. cerevisiae strain tested. How it is done: (§2) MIC assays were performed in duplicate following a modified version of the CLSI M27-A3 protocol as previously described ([Ravichandran et al., 2019]).

Data set [4] deals with Saccharomyces cerevisiae DGY6 haploid BY4741. In words: Minimum inhibitory concentration assay. In kind it is cell-based. To be noted: for MIC: S. cerevisiae DGY6 haploid BY4741, modified CLSI M27-A3, 24 h incubation, duplicate; for fold of native compound's concentration at which completely inactive: against S. cerevisiae. On the procedure:
as §2

In data set [5] the test system is Candida glabrata ATCC 2001. In words: Minimum inhibitory concentration assay. In kind it is cell-based. To be noted: C. glabrata ATCC 2001; modified CLSI M27-A3; 24 h incubation; duplicate. How it is done: as §2
The test system of data set [6] is Candida albicans ATCC 3147. In words: Minimum inhibitory concentration assay. In kind it is cell-based. To be noted: C. albicans ATCC 3147; modified CLSI M27-A3; 24 h incubation; duplicate. How it is done:
as §2

The nature of data set [7]: HPLC percentage of water at elution (polarity). In kind it is physicochemical. To be noted: chromatographic, analytical C18 (Agilent ZORBAX ODS, 5 μm, 4.6 × 250 mm); 30-min gradient from 90 to 20% water/ACN, 0.1% TFA; UV 220 nm; used as measure of polarity. On the procedure:
A two-step procedure of reductive amination was used to introduce a primary or secondary amine onto the aldehyde analog. The first step of reaction involves the formation of an intermediate carbinol amine, which is then dehydrated and protonated to form an iminium ion. Subsequent reduction of this iminium ion with sodium borohydride produces an alkylated amine product. The aldehyde analog of occidiofungin was dissolved in DMSO at a concentration of 10 mg/ml. Three amines (undecylamine, dodecylamine, and DL-dihydrosphingosine) were used for reductive amination. Aldehyde analog (10 μl of DMSO stock solution; 100 μg) was mixed with 10-fold excess of an amino lipid (molar ratio) in 400 μl pure methanol. The sample was then incubated at room temperature for at least 16 h. Solid sodium borohydride (6 mg) was weighted on an analytical balance (Adventurer™ Pro AV114C, Ohaus Corporation, USA) and was directly transferred into the reaction mixture, mixed well, and was incubated at room temperature for 5 min. The reaction mixture was diluted to 1 ml with 50% ACN 0.1% TFA and was separated by HPLC using a 30-min gradient from 90 to 20% water/ACN on the analytical C18 column. HPLC solvents contained 0.1% TFA. Products that eluted between 50% and 30% water were collected and analyzed by electrospray ionization mass spectrometry (ESI-MS) on a ThermoFisher DecaXP ion trap mass spectrometer. The yield of each HPLC sample was quantified by comparing the peak area of each analog to the peak area of a 100 μg standard of occidiofungin. Electrospray ionization mass spectrometry (ESI-MS) experiments were performed using a Thermo Scientific Q Exactive Focus. Sample was loop injected (10 μl) and acetonitrile with 0.1% formic acid was used as a mobile phase at a flow rate of 600 μl/min. The Q Exactive Focus HESI source was operated in full MS in positive mode. The mass resolution was tuned to 70,000 FWHM at m/z 200. The spray voltage was set to 3.5 kV, and the sheath gas and auxiliary gas flow rates were set to 40 and 10 arbitrary units, respectively. The transfer capillary temperature was held at 300°C and the S-Lens RF level was set at 50 v. Exactive Series 2.11 /Xcalibur 4.2.47 software was used for data acquisition and processing. The alkyne occidiofungin (alkyne-OCF) used for fluorescent microscopy was synthesized as previously described ([Ravichandran et al., 2019]).

The subject of data set [8] is Saccharomyces cerevisiae cells. In words: Fluorescent microscopy and competitive binding (uptake) assay with alkyne-occidiofungin. In kind it is cell-based. To be noted: 5 min pretreatment at 1X MIC of native occidiofungin, then 1X MIC alkyne-OCF 30 min; fluorescence microscopy. On the procedure:
After 30 min, the cells were fixed then permeabilized. Click reaction was performed with azide-derivatized Alexa Fluor 488 as per the kit-supplied protocol (Click-iT EdU imaging kit; Thermo Fisher Scientific). The cells were suspended in […]® Antifade Mounting Medium and visualized with a Leica DM 6B microscope. […] The cells were then fixed, permeabilized and Click reaction was performed as previously described ([Ravichandran et al., 2019]).

Data set [9] concerns G-actin. In words: Pyrene labeled actin polymerization assay. In kind it is biochemical. To be noted: 5 μM compound; duplicate. How it is done:
as §1

With phalloidin, the Kd (commonly the free concentration of one partner at which half of the binding sites on the other are occupied at equilibrium, for simple one-to-one binding) in data set [1] was ~8 nM and 8 nM. The “effect on actin depolymerization (in words)” value in [2] was “completely blocked the depolymerization of F-actin”.

For Undecylamine, in data set [3], the “fold of native occidiofungin's inhibitory concentration at which inactive” value was 64 fold. Moreover, the results for the MIC in data set [4], in [5] and in [6] were greater than 4 µg/mL, greater than 8 µg/mL and greater than 32 µg/mL, respectively. The “fold of native compound's concentration at which completely inactive” value in data set [4] amounted to 64 fold. The “percentage of water for the HPLC retention time” value (“percentage of water” below) in data set [7] is on record as 50%.

As for “occidiofungin [Native occidiofungin, reference compound]”, the “saturation of binding ratio (ligand:actin monomer)” value in [1] was “more than 20 molecules of occidiofungin to one actin monomer”. Besides, in data set [1], the equilibrium dissociation constant (Kd) was 1050 nM. In addition, the “effect of pretreatment on internalization of alkyne-OCF” value in [8] is recorded as “prevented internalization of alkyne-OCF”. The values for the MIC in [4], in data set [5] and in [6] were 0.0625 µg/mL, 0.5 µg/mL and 0.5 µg/mL, respectively. For the same compound, in data set [7], the “percentage of water” value came to 48%. Besides, the “effect on actin polymerization (in words)” value in data set [9] was “did not interfere with polymerization or depolymerization”. For the same compound, in data set [2], the “effect on actin depolymerization (in words)” value is “did not interfere with polymerization or depolymerization”.

Consider `CCCCCCCCCCCCNCCC1CC(=O)N[C@@H](CO)C(=O)N[C@@H](C(O)c2ccc(O)cc2)C(=O)N[C@@H](CCN)C(=O)NCC(=O)N[C@@H](CC(N)=O)C(=O)N[C@@H](CO)C(=O)N[C@@H](C(O)C(N)=O)C(=O)N1` (stereo partly drawn) [Dodecylamine] (cyclo([X1][X2]S[X3][Dab]GNS)), for which, in data set [3], the “fold of native occidiofungin's inhibitory concentration at which inactive” value is 64 fold. Besides, the “effect of pretreatment on internalization of alkyne-OCF” value in data set [8] was “did not interfere with the internalization of the alkyne-OCF”. The “fold of native compound's concentration at which completely inactive” value in [4] is given as 64 fold. Moreover, the “percentage of water” value in data set [7] was determined as 47%.

Consider DL-dihydrosphingosine, for which the MIC (commonly the smallest concentration in the dilution series that meets the test's criterion for growth inhibition) came out at 2 µg/mL in data set [4], 8 µg/mL in data set [5] and 16 µg/mL in [6]. For the same compound, the “percentage of water” value in data set [7] was 33%. Also, the “effect on actin polymerization (in words)” value in data set [9] was “did not interfere with polymerization or depolymerization”. In addition, the “effect on actin depolymerization (in words)” value in data set [2] was “did not interfere with polymerization or depolymerization”.
